Test results: PubChem BioAssay (NCI)
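GI50 marks 50% less growth. TGI: concentration producing complete growth inhibition.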

Columns and labels:
Assay in all cases: NCI tumour cell line growth inhibition, 384-well format; in the data active = GI50 below about 0.43 µM; inactive = the rest
M14 melanoma = tested on: M14 melanoma
HOP-62 NSCLC = tested on: HOP-62 NSCLC
MDA-MB-231 breast = tested on: MDA-MB-231 breast
RPMI-8226 leukemia = tested on: RPMI-8226 leukemia
LOX IMVI melanoma = tested on: LOX IMVI melanoma
SK-MEL-5 melanoma = tested on: SK-MEL-5 melanoma
U251 glioblastoma = tested on: U251 glioblastoma
UACC-62 melanoma = tested on: UACC-62 melanoma
UO-31 renal = tested on: UO-31 renal
OVCAR-3 ovarian = tested on: OVCAR-3 ovarian
PC-3 prostate = tested on: PC-3 prostate
SF-268 CNS = tested on: SF-268 CNS
RXF 393 renal = tested on: RXF 393 renal
MCF7 breast = tested on: MCF7 breast
A549 NSCLC = tested on: A549 NSCLC
MALME-3M melanoma = tested on: MALME-3M melanoma
CCRF-CEM leukemia = tested on: CCRF-CEM leukemia
DU-145 prostate = tested on: DU-145 prostate
IGROV1 ovarian = tested on: IGROV1 ovarian
NCI-H460 NSCLC = tested on: NCI-H460 NSCLC
NCI-H23 lung = tested on: NCI-H23 lung
COLO 205 colon = tested on: COLO 205 colon
NCI-H226 lung = tested on: NCI-H226 lung
MDA-MB-468 breast = tested on: MDA-MB-468 breast
OVCAR-8 ovarian = tested on: OVCAR-8 ovarian
MDA-MB-435 melanoma = tested on: MDA-MB-435 melanoma
SNB-75 CNS = tested on: SNB-75 CNS
HCC-2998 colon = tested on: HCC-2998 colon
KM12 colon = tested on: KM12 colon
HS 578T breast = tested on: HS 578T breast
OVCAR-5 ovarian = tested on: OVCAR-5 ovarian
HCT-15 colon = tested on: HCT-15 colon
TK-10 renal = tested on: TK-10 renal
SW-620 colon = tested on: SW-620 colon
CAKI-1 renal = tested on: CAKI-1 renal
NCI-H322M lung = tested on: NCI-H322M lung
HL-60(TB) leukemia = tested on: HL-60(TB) leukemia
OVCAR-4 ovarian = tested on: OVCAR-4 ovarian
K-562 leukemia = tested on: K-562 leukemia
SK-OV-3 ovarian = tested on: SK-OV-3 ovarian
SR leukemia = tested on: SR leukemia
SF-295 CNS = tested on: SF-295 CNS
ACHN renal = tested on: ACHN renal
SF-539 CNS = tested on: SF-539 CNS
NCI/ADR-RES ovarian = tested on: NCI/ADR-RES ovarian
786-0 renal = tested on: 786-0 renal
A498 renal = tested on: A498 renal
SNB-19 CNS = tested on: SNB-19 CNS
SN12C renal = tested on: SN12C renal
MOLT-4 leukemia = tested on: MOLT-4 leukemia
NCI-H522 lung = tested on: NCI-H522 lung
SK-MEL-28 melanoma = tested on: SK-MEL-28 melanoma
HOP-92 NSCLC = tested on: HOP-92 NSCLC
EKVX NSCLC = tested on: EKVX NSCLC
HT29 colon = tested on: HT29 colon
UACC-257 melanoma = tested on: UACC-257 melanoma
T-47D breast = tested on: T-47D breast
BT-549 breast = tested on: BT-549 breast
HCT-116 colon = tested on: HCT-116 colon

CNC(=O)c1cccc(-c2ccc3c(N4CCOC[C@@H]4C)nc(N4CCOC[C@@H]4C)nc3n2)c1
0.295 µM: TGI (SK-MEL-5 melanoma)
0.116 µM: TGI (T-47D breast)
0.727 µM: TGI (UACC-62 melanoma)
8.26 µM: TGI (SN12C renal)
1.78 µM: TGI (LOX IMVI melanoma)
0.239 µM: TGI (SR leukemia)
inactive: GI50 (U251 glioblastoma) 0.637 µM | GI50 (UO-31 renal) 0.505 µM | GI50 (SF-268 CNS) 0.433 µM | GI50 (HCC-2998 colon) 0.662 µM | GI50 (SW-620 colon) 0.635 µM | GI50 (HL-60(TB) leukemia) 1.36 µM | GI50 (K-562 leukemia) 0.48 µM | GI50 (NCI/ADR-RES ovarian) 0.534 µM | GI50 (SNB-19 CNS) 2.33 µM | GI50 (HT29 colon) 0.546 µM
0.857 µM: TGI (NCI-H226 lung)
0.545 µM: TGI (SF-295 CNS)
5.52 µM: TGI (CAKI-1 renal)
1.58 µM: TGI (SK-OV-3 ovarian)
3.83 µM: TGI (TK-10 renal)
1.17 µM: TGI (SK-MEL-28 melanoma)
active: GI50 (M14 melanoma) 0.143 µM | GI50 (HOP-62 NSCLC) 0.269 µM | GI50 (MDA-MB-231 breast) 0.207 µM | GI50 (RPMI-8226 leukemia) 0.0128 µM | GI50 (LOX IMVI melanoma) 0.298 µM | GI50 (SK-MEL-5 melanoma) 0.062 µM | GI50 (UACC-62 melanoma) 0.152 µM | GI50 (OVCAR-3 ovarian) 0.257 µM | GI50 (PC-3 prostate) 0.0719 µM | GI50 (RXF 393 renal) 0.33 µM | GI50 (MCF7 breast) 0.0597 µM | GI50 (A549 NSCLC) 0.152 µM | GI50 (MALME-3M melanoma) 0.019 µM | GI50 (CCRF-CEM leukemia) 0.197 µM | GI50 (DU-145 prostate) 0.341 µM | GI50 (IGROV1 ovarian) 0.0425 µM | GI50 (NCI-H460 NSCLC) 0.0379 µM | GI50 (NCI-H23 lung) 0.314 µM | GI50 (COLO 205 colon) 0.154 µM | GI50 (NCI-H226 lung) 0.182 µM | GI50 (MDA-MB-468 breast) 0.0332 µM | GI50 (OVCAR-8 ovarian) 0.37 µM | GI50 (MDA-MB-435 melanoma) 0.28 µM | GI50 (SNB-75 CNS) 0.121 µM | GI50 (KM12 colon) 0.156 µM | GI50 (HS 578T breast) 0.105 µM | GI50 (OVCAR-5 ovarian) 0.139 µM | GI50 (HCT-15 colon) 0.187 µM | GI50 (TK-10 renal) 0.26 µM | GI50 (CAKI-1 renal) 0.214 µM | GI50 (NCI-H322M lung) 0.13 µM | GI50 (OVCAR-4 ovarian) 0.111 µM | GI50 (SK-OV-3 ovarian) 0.116 µM | GI50 (SR leukemia) 0.0536 µM | GI50 (SF-295 CNS) 0.112 µM | GI50 (ACHN renal) 0.162 µM | GI50 (SF-539 CNS) 0.305 µM | GI50 ([…]-0 renal) 0.348 µM | GI50 (A498 renal) 0.0329 µM | GI50 (SN12C renal) 0.142 µM | GI50 (MOLT-4 leukemia) 0.0987 µM | GI50 (NCI-H522 lung) 0.0686 µM | GI50 (SK-MEL-28 melanoma) 0.131 µM | GI50 (HOP-92 NSCLC) 0.0972 µM | GI50 (EKVX NSCLC) 0.161 µM | GI50 (UACC-257 melanoma) 0.218 µM | GI50 (T-47D breast) 0.0204 µM | GI50 (BT-549 breast) 0.213 µM
1.04 µM: TGI (MOLT-4 leukemia)
0.0401 µM: TGI (RPMI-8226 leukemia)
1.87 µM: TGI (EKVX NSCLC)
7.86 µM: TGI (UO-31 renal)
1.61 µM: TGI (MDA-MB-435 melanoma)
0.161 µM: TGI (MALME-3M melanoma)
0.381 µM: TGI (HS 578T breast)
0.284 µM: TGI (IGROV1 ovarian)
0.595 µM: TGI (OVCAR-4 ovarian)
0.374 µM: TGI (A498 renal)
0.958 µM: TGI (UACC-257 melanoma)
1.36 µM: TGI (BT-549 breast)
1.66 µM: TGI (HOP-92 NSCLC)
0.277 µM: TGI (MDA-MB-468 breast)
8.3 µM: TGI (PC-3 prostate)

Cc1ccc2c(=O)c3cccc(CC(=O)O)c3oc2c1C
inactive: GI50 (M14 melanoma) > 100 µM | GI50 (HOP-62 NSCLC) > 100 µM | GI50 (MDA-MB-231 breast) > 100 µM | GI50 (RPMI-8226 leukemia) > 100 µM | GI50 (LOX IMVI melanoma) > 100 µM | GI50 (SK-MEL-5 melanoma) > 100 µM | GI50 (U251 glioblastoma) > 100 µM | GI50 (UACC-62 melanoma) > 100 µM | GI50 (UO-31 renal) > 100 µM | GI50 (OVCAR-3 ovarian) > 100 µM | GI50 (PC-3 prostate) > 100 µM | GI50 (SF-268 CNS) > 100 µM | GI50 (RXF 393 renal) > 100 µM | GI50 (MCF7 breast) > 100 µM | GI50 (A549 NSCLC) > 100 µM | GI50 (HCT-116 colon) > 100 µM | GI50 (MALME-3M melanoma) > 100 µM | GI50 (CCRF-CEM leukemia) > 100 µM | GI50 (DU-145 prostate) > 100 µM | GI50 (IGROV1 ovarian) > 100 µM | GI50 (NCI-H460 NSCLC) > 100 µM | GI50 (NCI-H23 lung) > 100 µM | GI50 (COLO 205 colon) > 100 µM | GI50 (NCI-H226 lung) > 100 µM | GI50 (MDA-MB-468 breast) > 100 µM | GI50 (OVCAR-8 ovarian) > 100 µM | GI50 (MDA-MB-435 melanoma) > 100 µM | GI50 (SNB-75 CNS) > 100 µM | GI50 (HCC-2998 colon) > 100 µM | GI50 (KM12 colon) > 100 µM | GI50 (HS 578T breast) > 100 µM | GI50 (HCT-15 colon) > 100 µM | GI50 (TK-10 renal) > 100 µM | GI50 (SW-620 colon) > 100 µM | GI50 (CAKI-1 renal) > 100 µM | GI50 (NCI-H322M lung) > 100 µM | GI50 (HL-60(TB) leukemia) > 100 µM | GI50 (OVCAR-4 ovarian) > 100 µM | GI50 (K-562 leukemia) > 100 µM | GI50 (SK-OV-3 ovarian) > 100 µM | GI50 (SF-295 CNS) > 100 µM | GI50 (ACHN renal) > 100 µM | GI50 (SF-539 CNS) > 100 µM | GI50 (NCI/ADR-RES ovarian) > 100 µM | GI50 ([…]-0 renal) > 100 µM | GI50 (A498 renal) > 100 µM | GI50 (SNB-19 CNS) > 100 µM | GI50 (SN12C renal) > 100 µM | GI50 (MOLT-4 leukemia) > 100 µM | GI50 (NCI-H522 lung) > 100 µM | GI50 (SK-MEL-28 melanoma) > 100 µM | GI50 (HOP-92 NSCLC) > 100 µM | GI50 (EKVX NSCLC) > 100 µM | GI50 (HT29 colon) > 100 µM | GI50 (UACC-257 melanoma) > 100 µM | GI50 (T-47D breast) > 100 µM | GI50 (BT-549 breast) > 100 µM
> 100 µM: TGI (M14 melanoma) | TGI (HOP-62 NSCLC) | TGI (MDA-MB-231 breast) | TGI (RPMI-8226 leukemia) | TGI (LOX IMVI melanoma) | TGI (SK-MEL-5 melanoma) | TGI (U251 glioblastoma) | TGI (UACC-62 melanoma) | TGI (UO-31 renal) | TGI (OVCAR-3 ovarian) | TGI (PC-3 prostate) | TGI (SF-268 CNS) | TGI (RXF 393 renal) | TGI (MCF7 breast) | TGI (A549 NSCLC) | TGI (HCT-116 colon) | TGI (MALME-3M melanoma) | TGI (CCRF-CEM leukemia) | TGI (DU-145 prostate) | TGI (IGROV1 ovarian) | TGI (NCI-H460 NSCLC) | TGI (NCI-H23 lung) | TGI (COLO 205 colon) | TGI (NCI-H226 lung) | TGI (MDA-MB-468 breast) | TGI (OVCAR-8 ovarian) | TGI (MDA-MB-435 melanoma) | TGI (SNB-75 CNS) | TGI (HCC-2998 colon) | TGI (KM12 colon) | TGI (HS 578T breast) | TGI (HCT-15 colon) | TGI (TK-10 renal) | TGI (SW-620 colon) | TGI (CAKI-1 renal) | TGI (NCI-H322M lung) | TGI (HL-60(TB) leukemia) | TGI (OVCAR-4 ovarian) | TGI (K-562 leukemia) | TGI (SK-OV-3 ovarian) | TGI (SF-295 CNS) | TGI (ACHN renal) | TGI (SF-539 CNS) | TGI (NCI/ADR-RES ovarian) | TGI (786-0 renal) | TGI (A498 renal) | TGI (SNB-19 CNS) | TGI (SN12C renal) | TGI (MOLT-4 leukemia) | TGI (NCI-H522 lung) | TGI (SK-MEL-28 melanoma) | TGI (HOP-92 NSCLC) | TGI (EKVX NSCLC) | TGI (HT29 colon) | TGI (UACC-257 melanoma) | TGI (T-47D breast) | TGI (BT-549 breast)
